According to article PMC8371902, “Phase 1 study of M2698, a p70S6K/AKT dual inhibitor, in patients with advanced cancer” (Journal of Hematology & Oncology, 2021):

Tested on: phospho-S6 (pS6) in tumor tissue
Assay: pS6 in tumor biopsies by immunohistochemistry, PK/PD models
Assay type: in vivo, human
Excerpt: Supplementary Table S7. Parameter estimates for pharmacokinetic/ pharmacodynamic models of pS6 in tumor tissue using dose and area under the curve (AUCT, calculated as dose divided by apparent clearance at time of tissue biopsy) as exposure metrics
log-linear regression model of dose – tumor pS6: y ~ slope *log(Dose)
Emax regression model of AUC – tumor pS6: y ~ (Emax *AUC) / (EC50 + AUC)

Compound: NC(=O)c1cccc2c(N[C@H](CN3CCC3)c3ccc(Cl)c(C(F)(F)F)c3)ncnc12 [M2698]
- AUC giving 70% inhibition of pS6 in tumor tissue (Emax model): 15,174 h.ng/mL
- AUC giving 80% inhibition of pS6 in tumor tissue (Emax model): 32,087 h.ng/mL
- Dose giving 70% inhibition of pS6 in tumor tissue (log-linear regression model): ~ 160 mg
- Dose giving 80% inhibition of pS6 in tumor tissue (log-linear regression model): ~240 mg
- Inhibition of pS6 levels in tumor tissue (paired biopsies, 28 patients): dose- and concentration-dependent inhibition
